AUCExtra, AUMCExtra and Tlast data for one compound are collected here from patent publication US20250276968A1, “8- AND 6-SUBSTITUTED PYRIDOPYRIMIDINE DERIVATIVES AS KRAS INHIBITORS” (Beta Pharma, Inc., priority 2022, published 2025).

Each structure is given as a SMILES string.

A short description of this data set: Pharmacokinetics in male CD-1 mice (IV and PO dosing). Format: in vivo. The following applies: mean plasma. The procedure: The pharmacokinetic profile of the Example 1 (compound 1a) was determined in male CD-1 mice by WuXi AppTec Co., Ltd., 1318 Wuzhong Avenue, Wuzhong District, Suzhou, China, 215104.

On to `C=C(F)C(=O)N1CCN(c2nc(OC[C@@H]3CCCN3C)nc3cc(-c4cccc5cccc(Cl)c45)cnc23)C[C@@H]1CC#N` [Example 1, 2-((S)-4-(7-(8-Chloronaphthalen-1-yl)-2-(((S)-1-methylpyrrolidin-2-yl)methoxy)pyrido[3,2-d]pyrimidin-4-yl)-1-(2-fluoroacryloyl)piperazin-2-yl)acetonitrile], for which, where the note is “3 mg/kg IV”, the AUCExtra is 9.23%, the AUMCExtra worked out at 35.2% and the Tlast amounted to 8.00 h. For the setting “30 mg/kg PO”, this compound displayed an AUCExtra of 17.1%, an AUMCExtra of 43.8% and a Tlast of 8.00 h.
